From BindingDB's records for doi:10.1016/j.chembiol.2011.12.010 (Boston College, 2012) come the findings set out here.

A value given as a limit tells only on which side of the number the result lay.

Holding throughout (experiment): In Vitro Enzyme Assay
Assay [1] concerns the target cGMP-inhibited 3',5'-cyclic phosphodiesterase 3B (Homo sapiens, UniProt Q13370).
Assay [2] concerns the target Dual specificity calcium/calmodulin-dependent 3',5'-cyclic nucleotide phosphodiesterase 1C (Human, UniProt Q14123).
In assay [3] the target is cAMP and cAMP-inhibited cGMP 3',5'-cyclic phosphodiesterase 10A (Homo sapiens, UniProt Q9Y233).
Assay [4] addresses Dual 3',5'-cyclic-AMP and -GMP phosphodiesterase 11A (Homo sapiens, UniProt Q9HCR9).
Assay [5] has as its target Cone cGMP-specific 3',5'-cyclic phosphodiesterase subunit alpha' (Homo sapiens, UniProt P51160).
In assay [6] the target is T1, cGMP-dependent 3',5'-cyclic phosphodiesterase (Rattus norvegicus, UniProt Q01062).
T1 sequence (Q01062 whole entry): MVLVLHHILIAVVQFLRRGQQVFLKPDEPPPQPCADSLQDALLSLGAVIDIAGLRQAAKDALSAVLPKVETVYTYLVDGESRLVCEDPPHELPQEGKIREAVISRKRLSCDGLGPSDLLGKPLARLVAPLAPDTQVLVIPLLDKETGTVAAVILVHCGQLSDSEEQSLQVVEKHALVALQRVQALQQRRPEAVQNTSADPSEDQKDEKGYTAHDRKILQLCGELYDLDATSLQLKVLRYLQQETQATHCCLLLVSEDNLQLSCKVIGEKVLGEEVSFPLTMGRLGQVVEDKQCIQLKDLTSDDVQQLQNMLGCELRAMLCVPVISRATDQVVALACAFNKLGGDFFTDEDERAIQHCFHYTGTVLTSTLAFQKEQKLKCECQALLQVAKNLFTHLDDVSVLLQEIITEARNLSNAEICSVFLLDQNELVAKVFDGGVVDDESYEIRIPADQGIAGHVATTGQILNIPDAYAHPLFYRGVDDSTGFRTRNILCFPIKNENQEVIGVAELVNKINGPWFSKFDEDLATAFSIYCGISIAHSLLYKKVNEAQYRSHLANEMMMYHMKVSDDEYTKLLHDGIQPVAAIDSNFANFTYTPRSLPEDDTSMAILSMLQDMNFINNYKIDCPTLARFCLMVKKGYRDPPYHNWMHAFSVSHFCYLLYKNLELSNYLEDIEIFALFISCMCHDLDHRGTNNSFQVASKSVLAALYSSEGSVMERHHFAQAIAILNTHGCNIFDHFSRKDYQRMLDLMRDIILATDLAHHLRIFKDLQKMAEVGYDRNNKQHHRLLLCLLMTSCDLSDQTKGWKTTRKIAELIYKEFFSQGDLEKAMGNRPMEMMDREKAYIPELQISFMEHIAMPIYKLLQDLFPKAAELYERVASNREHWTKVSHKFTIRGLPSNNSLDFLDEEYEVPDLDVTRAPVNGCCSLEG

Assay [7] has as its target High affinity cAMP-specific 3',5'-cyclic phosphodiesterase 7A (Homo sapiens, UniProt Q13946).

cGMP-inhibited 3',5'-cyclic phosphodiesterase 3B, sequence (Q13370 whole entry): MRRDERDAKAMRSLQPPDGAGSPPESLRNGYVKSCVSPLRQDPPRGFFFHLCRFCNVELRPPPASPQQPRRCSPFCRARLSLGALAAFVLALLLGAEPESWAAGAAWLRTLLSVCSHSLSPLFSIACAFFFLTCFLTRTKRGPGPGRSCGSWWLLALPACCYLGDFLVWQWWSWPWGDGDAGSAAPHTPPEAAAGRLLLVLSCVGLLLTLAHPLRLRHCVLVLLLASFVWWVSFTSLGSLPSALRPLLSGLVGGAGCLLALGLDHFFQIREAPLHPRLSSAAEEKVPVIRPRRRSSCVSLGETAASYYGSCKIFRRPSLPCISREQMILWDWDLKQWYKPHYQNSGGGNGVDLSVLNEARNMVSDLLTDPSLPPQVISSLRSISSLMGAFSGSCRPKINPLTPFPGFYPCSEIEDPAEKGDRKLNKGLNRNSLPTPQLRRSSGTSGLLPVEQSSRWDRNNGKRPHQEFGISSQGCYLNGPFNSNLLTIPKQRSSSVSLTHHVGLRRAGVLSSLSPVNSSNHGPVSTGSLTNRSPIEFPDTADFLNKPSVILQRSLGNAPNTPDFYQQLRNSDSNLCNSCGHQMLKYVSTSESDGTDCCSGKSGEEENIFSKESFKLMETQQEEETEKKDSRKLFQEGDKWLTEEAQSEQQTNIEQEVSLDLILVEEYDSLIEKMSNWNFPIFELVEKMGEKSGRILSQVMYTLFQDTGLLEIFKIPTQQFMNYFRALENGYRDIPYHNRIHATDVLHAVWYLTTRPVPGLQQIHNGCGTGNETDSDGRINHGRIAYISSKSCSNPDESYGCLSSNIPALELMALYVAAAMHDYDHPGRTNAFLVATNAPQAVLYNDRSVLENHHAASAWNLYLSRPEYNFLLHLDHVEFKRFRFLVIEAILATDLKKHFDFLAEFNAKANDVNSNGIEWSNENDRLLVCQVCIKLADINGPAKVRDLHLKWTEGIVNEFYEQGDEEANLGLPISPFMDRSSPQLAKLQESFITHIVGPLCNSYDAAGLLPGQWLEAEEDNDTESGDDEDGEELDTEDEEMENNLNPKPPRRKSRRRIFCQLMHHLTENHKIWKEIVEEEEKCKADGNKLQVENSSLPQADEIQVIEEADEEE
Dual 3',5'-cyclic-AMP and -GMP phosphodiesterase 11A, sequence (Q9HCR9 whole entry): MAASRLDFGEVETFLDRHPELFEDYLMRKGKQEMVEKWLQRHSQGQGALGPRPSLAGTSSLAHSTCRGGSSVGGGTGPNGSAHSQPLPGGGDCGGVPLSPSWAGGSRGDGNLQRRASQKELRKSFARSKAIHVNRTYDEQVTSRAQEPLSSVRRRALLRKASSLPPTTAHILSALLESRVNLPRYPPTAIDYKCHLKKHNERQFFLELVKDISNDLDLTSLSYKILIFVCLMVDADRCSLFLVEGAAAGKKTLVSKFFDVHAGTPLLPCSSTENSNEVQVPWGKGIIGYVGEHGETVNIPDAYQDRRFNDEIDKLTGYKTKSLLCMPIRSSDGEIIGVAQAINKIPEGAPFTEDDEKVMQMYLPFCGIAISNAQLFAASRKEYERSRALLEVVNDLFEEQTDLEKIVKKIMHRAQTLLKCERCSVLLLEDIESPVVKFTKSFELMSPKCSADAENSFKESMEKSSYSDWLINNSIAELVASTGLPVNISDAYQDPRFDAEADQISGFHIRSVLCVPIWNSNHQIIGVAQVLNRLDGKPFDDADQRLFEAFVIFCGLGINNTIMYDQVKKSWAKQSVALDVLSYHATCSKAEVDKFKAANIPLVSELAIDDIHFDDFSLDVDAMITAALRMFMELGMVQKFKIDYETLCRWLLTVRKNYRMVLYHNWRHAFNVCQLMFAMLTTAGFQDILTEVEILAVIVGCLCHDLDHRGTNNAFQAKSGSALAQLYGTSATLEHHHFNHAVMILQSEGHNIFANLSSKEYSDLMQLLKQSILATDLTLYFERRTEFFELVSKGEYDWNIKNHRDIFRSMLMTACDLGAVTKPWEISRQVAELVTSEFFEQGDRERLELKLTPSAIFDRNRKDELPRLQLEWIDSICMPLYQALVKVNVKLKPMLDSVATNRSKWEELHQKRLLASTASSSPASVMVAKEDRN
Dual specificity calcium/calmodulin-dependent 3',5'-cyclic nucleotide phosphodiesterase 1C, sequence (Q14123 whole entry): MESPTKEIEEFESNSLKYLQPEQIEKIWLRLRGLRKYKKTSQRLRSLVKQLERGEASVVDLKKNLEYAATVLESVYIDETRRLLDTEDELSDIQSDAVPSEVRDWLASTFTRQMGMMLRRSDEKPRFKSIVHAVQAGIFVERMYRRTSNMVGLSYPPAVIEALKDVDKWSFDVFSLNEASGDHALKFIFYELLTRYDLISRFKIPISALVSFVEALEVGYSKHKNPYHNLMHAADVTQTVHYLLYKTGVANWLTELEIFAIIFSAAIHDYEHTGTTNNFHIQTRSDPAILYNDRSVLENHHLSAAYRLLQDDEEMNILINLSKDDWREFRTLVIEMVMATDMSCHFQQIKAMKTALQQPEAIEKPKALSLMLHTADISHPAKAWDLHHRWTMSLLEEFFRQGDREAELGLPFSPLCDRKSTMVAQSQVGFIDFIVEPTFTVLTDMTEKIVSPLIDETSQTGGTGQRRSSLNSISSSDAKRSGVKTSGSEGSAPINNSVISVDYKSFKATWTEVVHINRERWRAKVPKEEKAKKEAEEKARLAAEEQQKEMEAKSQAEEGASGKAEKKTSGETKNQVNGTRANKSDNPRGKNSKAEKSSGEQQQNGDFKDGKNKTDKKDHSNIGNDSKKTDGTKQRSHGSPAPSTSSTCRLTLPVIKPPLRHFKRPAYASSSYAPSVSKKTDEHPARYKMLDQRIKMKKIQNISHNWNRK
cAMP and cAMP-inhibited cGMP 3',5'-cyclic phosphodiesterase 10A, sequence (Q9Y233 whole entry): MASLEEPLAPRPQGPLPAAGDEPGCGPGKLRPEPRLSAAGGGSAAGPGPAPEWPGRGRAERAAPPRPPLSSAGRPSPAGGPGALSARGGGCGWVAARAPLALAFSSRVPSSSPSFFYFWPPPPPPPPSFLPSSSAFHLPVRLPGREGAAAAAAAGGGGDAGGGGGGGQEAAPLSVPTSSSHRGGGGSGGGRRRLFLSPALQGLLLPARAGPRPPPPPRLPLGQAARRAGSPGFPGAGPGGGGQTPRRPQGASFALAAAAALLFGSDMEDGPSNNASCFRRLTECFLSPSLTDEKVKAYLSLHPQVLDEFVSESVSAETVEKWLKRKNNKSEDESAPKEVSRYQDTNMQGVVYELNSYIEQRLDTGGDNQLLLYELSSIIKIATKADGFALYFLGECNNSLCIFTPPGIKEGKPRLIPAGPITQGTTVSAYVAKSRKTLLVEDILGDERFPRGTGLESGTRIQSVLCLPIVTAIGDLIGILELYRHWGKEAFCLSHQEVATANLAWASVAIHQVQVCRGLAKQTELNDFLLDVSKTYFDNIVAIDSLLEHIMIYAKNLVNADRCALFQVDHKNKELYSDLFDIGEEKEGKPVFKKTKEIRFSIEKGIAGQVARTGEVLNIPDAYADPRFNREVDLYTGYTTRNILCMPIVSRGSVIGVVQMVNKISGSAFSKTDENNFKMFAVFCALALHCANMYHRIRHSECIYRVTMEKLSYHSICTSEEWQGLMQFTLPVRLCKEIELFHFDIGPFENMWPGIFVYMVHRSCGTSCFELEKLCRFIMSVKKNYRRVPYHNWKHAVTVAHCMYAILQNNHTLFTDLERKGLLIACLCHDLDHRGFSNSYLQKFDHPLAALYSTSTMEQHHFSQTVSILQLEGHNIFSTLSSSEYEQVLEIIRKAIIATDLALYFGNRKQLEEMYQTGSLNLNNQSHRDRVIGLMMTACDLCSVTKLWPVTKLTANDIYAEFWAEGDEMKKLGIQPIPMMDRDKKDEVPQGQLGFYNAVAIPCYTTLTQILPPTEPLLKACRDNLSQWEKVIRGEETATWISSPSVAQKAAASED
Cone cGMP-specific 3',5'-cyclic phosphodiesterase subunit alpha', sequence (P51160 whole entry): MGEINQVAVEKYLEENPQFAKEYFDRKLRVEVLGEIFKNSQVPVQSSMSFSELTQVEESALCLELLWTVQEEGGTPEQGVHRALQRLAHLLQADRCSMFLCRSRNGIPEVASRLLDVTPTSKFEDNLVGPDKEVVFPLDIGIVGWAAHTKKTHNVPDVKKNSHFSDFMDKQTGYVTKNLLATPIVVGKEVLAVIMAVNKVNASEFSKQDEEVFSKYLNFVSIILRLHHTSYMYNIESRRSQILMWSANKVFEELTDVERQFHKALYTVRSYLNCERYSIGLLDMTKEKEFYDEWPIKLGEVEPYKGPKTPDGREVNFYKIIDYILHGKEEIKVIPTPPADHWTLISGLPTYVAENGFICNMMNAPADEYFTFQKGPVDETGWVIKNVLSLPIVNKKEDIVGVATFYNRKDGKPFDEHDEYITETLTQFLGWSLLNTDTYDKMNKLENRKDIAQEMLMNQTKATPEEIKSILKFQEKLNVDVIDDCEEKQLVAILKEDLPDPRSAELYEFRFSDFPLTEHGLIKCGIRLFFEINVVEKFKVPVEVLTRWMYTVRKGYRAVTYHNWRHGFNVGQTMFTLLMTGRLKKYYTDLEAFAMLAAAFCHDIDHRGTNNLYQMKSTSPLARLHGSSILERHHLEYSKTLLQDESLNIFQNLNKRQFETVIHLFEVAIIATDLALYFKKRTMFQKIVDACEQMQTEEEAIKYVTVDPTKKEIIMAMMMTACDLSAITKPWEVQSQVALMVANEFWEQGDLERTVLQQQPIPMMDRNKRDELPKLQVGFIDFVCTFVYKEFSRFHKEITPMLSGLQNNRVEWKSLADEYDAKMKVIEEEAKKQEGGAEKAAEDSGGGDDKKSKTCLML

On to `Cc1ccccc1Nc1ncnc2c1c(-c1ccccc1)cn2-c1ccc(F)cc1`, for which the IC50 in assay [1] and in assay [2] was greater than 100 µM each time.

Take `CCCSc1nc2c(c(=O)n1-c1ccccc1)SCC2` [BC11-38]: the IC50 in assay [1] and in assay [2] was greater than 100 µM in each case.

As for `CCCSc1nc2c(c(=O)n1-c1ccccc1OC)SCC2` [BC11-38-4], the IC50 in assay [1] is greater than 100 µM; in assay [3] it was 5.8 µM; in assay [2], greater than 100 µM; in assay [4], 9.9 µM.

Regarding `COc1ccc2c(c1)sc1nc(=O)n(Cc3ccccc3)c(=O)n12` [US9173884, BC11-19-1], it took 2 µM to reach half-maximal inhibition in assay [4] (IC50).

With `CCN(CC)C(=O)c1cc(-c2cccs2)nc2c1c(C)nn2-c1ccccc1C` [BC11-15], the IC50 in assay [1] and in assay [2] was greater than 100 µM throughout.

In turn, `CCCCSc1nc2c(c(=O)n1-c1ccccc1)SCC2` [BC11-38-1] came in with a half-maximal inhibitory concentration (IC50) in assay [1] greater than 100 µM.

As for `CCC(C)Sc1nc2c(c(=O)n1-c1ccccc1)SCC2` (stereo not given) [BC11-38-2], the IC50 is greater than 100 µM in assay [1], 51.2 µM in assay [5], greater than 100 µM in assay [2] and 18.4 µM in assay [6].

Turning to `CCCSc1nc2c(c(=O)n1-c1ccc(C)cc1)SCC2` [BC11-38-3], the IC50 in assay [1] was greater than 100 µM; in assay [7], 21.3 µM; in assay [2], greater than 100 µM; in assay [4], 7.5 µM.

A word on the IC50: it is the point on the concentration scale where inhibition reaches its midpoint.
